Read-outs that look alike come from different tables or passages of the source.
Tests used:
hMAST1 = molecular target: T1, hMAST1 (Homo sapiens, UniProt Q9Y2H9); experiment: KINOMEscan; format: binding
T1 construct: purchased DiscoverX

[1] = system: ESCC, HCC, and breast cancer cell lines; experiment: Proliferation assay (CellTiter-Glo); format: cell-based; conditions: Homo sapiens, range over cell lines of all three panels
Protocol: Cell viability was measured using CellTiter-Glo^TM (Promega) according to the manufacturer's instructions.

bacPKNB = molecular target: T2, bacPKNB (Mycobacterium tuberculosis, UniProt P9WI81); experiment: KINOMEscan; format: binding
T2 construct: purchased DiscoverX

hGCN2(Kin.Dom.2,S808G) = molecular target: T3, hGCN2(Kin.Dom.2,S808G) (Homo sapiens, UniProt Q9P2K8, S808G); experiment: KINOMEscan; format: binding
T3 construct: hGCN2(Kin.Dom.2,S808G); purchased DiscoverX

hCAMK2A = molecular target: T4, hCAMK2A (Homo sapiens, UniProt Q9UQM7); experiment: KINOMEscan; format: binding
T4 construct: purchased DiscoverX

hHUNK = molecular target: T5, hHUNK (Homo sapiens, UniProt P57058); experiment: KINOMEscan; format: binding
T5 construct: purchased DiscoverX (KINOMEscan panel)

hSgK110 = molecular target: T6, hSgK110 (Homo sapiens, UniProt P0C264); experiment: KINOMEscan; format: binding
T6 construct: purchased DiscoverX (KINOMEscan platform)

hTRKA = molecular target: T7, hTRKA (Homo sapiens, UniProt P04629); experiment: KINOMEscan; format: binding
T7 construct: purchased DiscoverX

SMYD2 = SMYD2 (Homo sapiens, UniProt Q9NRG4); experiment: Thermal denaturation fluorometry (differential scanning fluorometry); format: binding; conditions: 100 μM LLY-507
Protocol: SMYD2 protein unfolding was monitored on a 384-well Roche Lightcycler480 II^TM RT-PCR machine using SYPRO® Orange as a reporter dye (Invitrogen, S6651). Excitation and emission filters were set at 465 and 580 nm, respectively; the temperature was continuously ramped from 25 to 95 °C at a rate of 0.11°C/s. The reaction mixture (6 μl/well) contained 3.9 μM SMYD2 protein and 100 μM compound in 20 mM Tris, pH 8.0, 150 mM NaCl, 10% glycerol, 2 mM tris(2-carboxyethyl)phosphine (TCEP), and 1% DMSO buffer. Triplicates were run along with protein without compound as a negative control.

hMARK1 = molecular target: T8, hMARK1 (Homo sapiens, UniProt Q9P0L2); experiment: KINOMEscan; format: binding
T8 construct: purchased DiscoverX

hMAP4K3 = molecular target: T9, hMAP4K3 (Homo sapiens, UniProt Q8IVH8); experiment: KINOMEscan; format: binding
T9 construct: purchased DiscoverX (KINOMEscan platform)

[2] = system: SMYD2-mediated methylation of p53 Lys370; experiment: Western blot for p53 Lys370me1, HEK293 cells co-transfected with FLAG-SMYD2 and FLAG-p53; format: cell-based; conditions: Homo sapiens, 0–2.5 μM, 28 h, read-out: IC50, decrease in p53 Lys370me1
Protocol: Cell lysates were subject to 10% SDS-PAGE and transferred to a PVDF membrane. Each membrane was blocked in Odyssey Blocking Buffer (LI-COR Biosciences) and incubated with monoclonal anti-p53 (D01) antibody (Abcam, ab1101) or rabbit anti-p53 Lys^370me1 antibody (a kind gift from Dr. Shelley Berger) followed by detection with IRDye®680RD goat anti-mouse IgG (LI-COR Biosciences) and IRDye800CW goat anti-rabbit IgG (LI-COR Biosciences) on the Odyssey Imager (LI-COR Biosciences). […] 4–8 h later, cells were treated with 0–25 μM compound for 15 h. […] 24 h later, cells were lysed with 200 μl of MSD Tris Lysis Buffer^TM (Meso Scale Discovery). A MULTI-ARRAY^TM 96-well plate (Meso Scale Discovery, catalog number L15XA-3) was precoated with 2 μg/ml custom-made methyl-p53 antibody (Lampire) in PBS overnight at 4 °C. 150 μl/well MSD Blocking Solution A^TM (final concentration of 3%) was added followed by shaking at room temperature for 1 h. The plate was washed three times with 1× MSD Tris Wash Buffer^TM (Meso Scale Discovery). 0.5 μg of cell lysate in 25 μl/well MSD Tris Lysis Buffer was added, followed by shaking overnight at 4 °C. […] Following a final wash three times with 1× MSD Tris Wash Buffer, 150 μl/well 1× MSD Read Buffer^TM (Meso Scale Discovery) was added, and plates were read on an MSD SECTOR^TM Imager 6000 instrument (Meso Scale Discovery).

hLATS2 = molecular target: T10, hLATS2 (Homo sapiens, UniProt Q9NRM7); experiment: KINOMEscan; format: binding
T10 construct: purchased DiscoverX (KINOMEscan platform)

hTLK2 = molecular target: T11, hTLK2 (Homo sapiens, UniProt Q86UE8); experiment: KINOMEscan; format: binding
T11 construct: purchased DiscoverX

hKIT(D816V) = molecular target: T12, hKIT(D816V) (Homo sapiens, UniProt P10721, D816V); experiment: KINOMEscan; format: binding
T12 construct: purchased DiscoverX (KINOMEscan panel)

hCTK = molecular target: T13, hCTK (Homo sapiens, UniProt P42679); experiment: KINOMEscan; format: binding
T13 construct: purchased DiscoverX (KINOMEscan platform)
T13 sequence (P42679 whole entry): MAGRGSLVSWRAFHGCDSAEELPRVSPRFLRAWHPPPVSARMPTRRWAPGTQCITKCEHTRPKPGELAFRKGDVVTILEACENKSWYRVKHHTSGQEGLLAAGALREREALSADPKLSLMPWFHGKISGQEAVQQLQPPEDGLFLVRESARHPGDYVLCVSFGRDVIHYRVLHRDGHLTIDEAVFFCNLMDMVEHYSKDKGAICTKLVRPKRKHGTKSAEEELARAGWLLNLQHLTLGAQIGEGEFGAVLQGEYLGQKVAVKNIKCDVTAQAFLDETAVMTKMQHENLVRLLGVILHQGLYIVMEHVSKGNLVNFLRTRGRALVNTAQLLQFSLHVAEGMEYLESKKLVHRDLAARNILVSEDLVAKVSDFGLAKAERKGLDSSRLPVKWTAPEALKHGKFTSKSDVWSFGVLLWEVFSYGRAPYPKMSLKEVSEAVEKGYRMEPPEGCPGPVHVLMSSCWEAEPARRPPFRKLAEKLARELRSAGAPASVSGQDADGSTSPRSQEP

Sequence of SMYD2 (Q9NRG4 whole entry): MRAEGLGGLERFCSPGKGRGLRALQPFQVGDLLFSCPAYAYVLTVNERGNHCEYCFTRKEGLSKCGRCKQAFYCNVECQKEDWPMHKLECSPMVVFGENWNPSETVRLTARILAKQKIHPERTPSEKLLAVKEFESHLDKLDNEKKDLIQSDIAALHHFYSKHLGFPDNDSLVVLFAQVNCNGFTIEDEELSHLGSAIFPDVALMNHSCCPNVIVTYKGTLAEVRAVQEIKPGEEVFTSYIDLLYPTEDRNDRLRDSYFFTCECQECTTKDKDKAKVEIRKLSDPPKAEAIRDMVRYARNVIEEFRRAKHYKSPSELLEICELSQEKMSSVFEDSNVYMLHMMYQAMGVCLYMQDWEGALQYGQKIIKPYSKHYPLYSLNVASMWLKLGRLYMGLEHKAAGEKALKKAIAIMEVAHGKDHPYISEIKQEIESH
T1 sequence (Q9Y2H9 whole entry): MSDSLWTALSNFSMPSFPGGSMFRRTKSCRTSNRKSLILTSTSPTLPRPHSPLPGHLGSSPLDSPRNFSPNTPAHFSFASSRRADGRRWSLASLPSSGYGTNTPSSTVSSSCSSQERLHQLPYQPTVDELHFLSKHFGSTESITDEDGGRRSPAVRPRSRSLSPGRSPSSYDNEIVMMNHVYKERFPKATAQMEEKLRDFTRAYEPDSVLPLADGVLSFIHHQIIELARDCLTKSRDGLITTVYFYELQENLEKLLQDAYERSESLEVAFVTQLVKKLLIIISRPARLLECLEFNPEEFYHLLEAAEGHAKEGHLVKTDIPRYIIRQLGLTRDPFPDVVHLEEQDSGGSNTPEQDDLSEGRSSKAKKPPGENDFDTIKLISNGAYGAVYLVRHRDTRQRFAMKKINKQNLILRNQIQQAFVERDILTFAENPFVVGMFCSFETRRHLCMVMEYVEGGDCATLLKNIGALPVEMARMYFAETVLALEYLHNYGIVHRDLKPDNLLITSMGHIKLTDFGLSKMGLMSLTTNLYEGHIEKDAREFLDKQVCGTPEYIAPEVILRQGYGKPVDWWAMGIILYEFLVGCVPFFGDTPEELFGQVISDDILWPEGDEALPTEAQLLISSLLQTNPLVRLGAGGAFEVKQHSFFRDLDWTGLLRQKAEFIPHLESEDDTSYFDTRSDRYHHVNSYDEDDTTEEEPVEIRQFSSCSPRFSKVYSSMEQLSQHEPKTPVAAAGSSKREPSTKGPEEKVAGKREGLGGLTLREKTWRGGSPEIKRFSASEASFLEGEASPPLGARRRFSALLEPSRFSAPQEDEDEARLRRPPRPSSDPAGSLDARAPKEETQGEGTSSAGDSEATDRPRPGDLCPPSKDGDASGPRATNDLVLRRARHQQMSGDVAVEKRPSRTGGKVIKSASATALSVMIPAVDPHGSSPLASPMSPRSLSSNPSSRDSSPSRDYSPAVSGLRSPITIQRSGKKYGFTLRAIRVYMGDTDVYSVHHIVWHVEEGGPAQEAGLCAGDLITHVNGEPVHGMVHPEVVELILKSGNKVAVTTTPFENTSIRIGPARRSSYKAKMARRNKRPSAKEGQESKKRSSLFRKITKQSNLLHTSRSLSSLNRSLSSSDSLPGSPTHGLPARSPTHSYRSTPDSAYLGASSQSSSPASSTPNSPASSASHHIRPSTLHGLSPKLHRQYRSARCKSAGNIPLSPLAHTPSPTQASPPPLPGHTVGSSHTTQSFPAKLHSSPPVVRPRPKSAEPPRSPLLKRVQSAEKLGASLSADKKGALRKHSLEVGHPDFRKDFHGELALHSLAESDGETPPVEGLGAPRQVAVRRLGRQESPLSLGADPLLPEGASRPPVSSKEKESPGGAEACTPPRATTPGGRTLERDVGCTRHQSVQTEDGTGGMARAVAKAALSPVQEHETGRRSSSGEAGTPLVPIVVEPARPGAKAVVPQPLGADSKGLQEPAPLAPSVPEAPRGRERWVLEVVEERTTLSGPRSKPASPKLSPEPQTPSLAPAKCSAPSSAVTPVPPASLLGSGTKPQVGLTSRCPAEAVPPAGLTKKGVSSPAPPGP
T11 sequence (Q86UE8 whole entry): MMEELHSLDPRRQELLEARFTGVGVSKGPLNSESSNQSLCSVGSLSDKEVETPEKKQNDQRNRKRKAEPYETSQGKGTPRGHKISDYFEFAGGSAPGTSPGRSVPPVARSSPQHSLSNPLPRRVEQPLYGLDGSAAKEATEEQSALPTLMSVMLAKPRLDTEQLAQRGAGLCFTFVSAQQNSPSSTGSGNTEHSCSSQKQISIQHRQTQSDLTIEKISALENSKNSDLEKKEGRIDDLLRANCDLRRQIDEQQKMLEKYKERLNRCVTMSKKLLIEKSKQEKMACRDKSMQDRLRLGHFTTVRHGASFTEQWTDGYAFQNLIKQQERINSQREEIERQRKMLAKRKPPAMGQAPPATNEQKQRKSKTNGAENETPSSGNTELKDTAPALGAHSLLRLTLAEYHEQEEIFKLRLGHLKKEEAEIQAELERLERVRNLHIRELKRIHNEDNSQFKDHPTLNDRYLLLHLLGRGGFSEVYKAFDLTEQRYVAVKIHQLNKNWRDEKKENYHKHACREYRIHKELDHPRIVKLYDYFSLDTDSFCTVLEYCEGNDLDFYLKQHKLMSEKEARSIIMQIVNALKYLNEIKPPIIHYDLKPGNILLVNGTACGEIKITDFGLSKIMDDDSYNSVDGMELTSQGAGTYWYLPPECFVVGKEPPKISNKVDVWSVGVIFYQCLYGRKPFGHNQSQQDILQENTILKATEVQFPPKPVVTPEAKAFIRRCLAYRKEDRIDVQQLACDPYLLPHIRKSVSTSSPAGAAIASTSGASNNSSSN
T3 sequence (Q9P2K8 590-1001 S808G limits assumed): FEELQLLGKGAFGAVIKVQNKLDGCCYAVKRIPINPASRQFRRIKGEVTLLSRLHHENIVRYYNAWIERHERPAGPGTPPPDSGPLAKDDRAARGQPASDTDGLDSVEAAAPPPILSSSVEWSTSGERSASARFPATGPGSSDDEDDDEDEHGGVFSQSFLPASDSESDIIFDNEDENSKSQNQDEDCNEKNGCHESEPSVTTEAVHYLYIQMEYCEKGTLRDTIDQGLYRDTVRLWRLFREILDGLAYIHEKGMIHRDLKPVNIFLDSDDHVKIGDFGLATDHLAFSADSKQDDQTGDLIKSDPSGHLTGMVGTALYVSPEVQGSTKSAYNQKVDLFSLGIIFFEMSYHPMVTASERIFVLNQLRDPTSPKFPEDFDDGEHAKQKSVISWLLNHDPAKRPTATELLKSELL
T5 sequence (P57058 whole entry): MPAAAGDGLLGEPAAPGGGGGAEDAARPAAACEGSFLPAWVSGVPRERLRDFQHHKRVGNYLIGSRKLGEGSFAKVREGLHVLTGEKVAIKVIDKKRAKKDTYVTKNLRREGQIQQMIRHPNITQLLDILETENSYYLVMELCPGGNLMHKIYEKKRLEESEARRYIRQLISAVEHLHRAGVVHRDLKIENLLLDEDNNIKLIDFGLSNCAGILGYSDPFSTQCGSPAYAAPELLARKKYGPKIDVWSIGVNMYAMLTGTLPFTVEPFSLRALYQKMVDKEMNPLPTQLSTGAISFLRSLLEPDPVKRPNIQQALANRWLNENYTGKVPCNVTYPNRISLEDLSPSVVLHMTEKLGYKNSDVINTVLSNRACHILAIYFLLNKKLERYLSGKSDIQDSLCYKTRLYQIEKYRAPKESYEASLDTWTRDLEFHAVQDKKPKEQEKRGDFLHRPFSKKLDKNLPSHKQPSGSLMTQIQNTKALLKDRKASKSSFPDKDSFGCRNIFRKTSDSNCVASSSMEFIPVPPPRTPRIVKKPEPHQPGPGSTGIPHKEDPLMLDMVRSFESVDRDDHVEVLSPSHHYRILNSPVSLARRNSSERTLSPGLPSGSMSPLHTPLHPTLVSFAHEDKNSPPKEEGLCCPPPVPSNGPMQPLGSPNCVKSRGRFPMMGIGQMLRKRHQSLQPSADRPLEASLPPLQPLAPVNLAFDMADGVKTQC
T2 sequence (P9WI81 whole entry): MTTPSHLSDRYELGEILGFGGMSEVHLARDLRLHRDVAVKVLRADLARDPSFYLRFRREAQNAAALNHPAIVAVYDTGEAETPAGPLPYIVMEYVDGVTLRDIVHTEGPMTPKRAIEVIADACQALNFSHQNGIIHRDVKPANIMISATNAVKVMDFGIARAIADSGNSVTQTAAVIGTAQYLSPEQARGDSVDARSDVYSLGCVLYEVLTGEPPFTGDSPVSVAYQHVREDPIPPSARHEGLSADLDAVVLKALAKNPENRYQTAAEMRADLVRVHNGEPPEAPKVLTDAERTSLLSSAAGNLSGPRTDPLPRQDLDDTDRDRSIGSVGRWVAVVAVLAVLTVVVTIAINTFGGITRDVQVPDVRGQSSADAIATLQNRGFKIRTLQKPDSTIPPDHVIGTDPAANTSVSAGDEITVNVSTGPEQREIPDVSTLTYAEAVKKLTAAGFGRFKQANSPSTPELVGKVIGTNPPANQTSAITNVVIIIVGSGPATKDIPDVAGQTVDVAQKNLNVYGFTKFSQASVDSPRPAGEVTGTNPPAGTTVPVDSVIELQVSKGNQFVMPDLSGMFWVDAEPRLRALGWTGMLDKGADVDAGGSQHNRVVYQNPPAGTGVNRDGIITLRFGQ

Cc1cn(CCN2CCN(c3ccccc3-c3cc(C#N)cc(C(=O)NCCCN4CCCC4)c3)CC2)c2ccccc12 [LLY-507, 3-cyano-5-{2-[4-[2-(3-methylindol-1-yl)ethyl]piperazin-1-yl]-phenyl}-N-[(3-pyrrolidin-1-yl)propyl]benzamide]
0.3 to 3.2 µM: IC50 ([1]; 168 h, 7-day treatment, read-out: IC50, proliferation, longer term assay)
54 °C: Tm of SMYD2 in presence of compound (SMYD2; SMYD2 alone Tm = 49 °C)
> 20 µM: IC50 (hMAST1) | IC50 (bacPKNB) | IC50 (hGCN2(Kin.Dom.2,S808G)) | IC50 (hCAMK2A) | IC50 (hHUNK) | IC50 (hSgK110) | IC50 (hTRKA) | IC50 (hMARK1) | IC50 (hMAP4K3) | IC50 (hLATS2) | IC50 (hTLK2) | IC50 (hKIT(D816V)) | IC50 (hCTK)
5 °C: increase in thermal stability of SMYD2 (SMYD2)
1.5 to 6 µM: IC50 ([1]; 96 h, 3 to 4-day treatment, read-out: IC50, proliferation, standard assay)
< 1 µM: IC50 [2]

Source: article PMC4447944 (The Journal of Biological Chemistry, 2015)
